These results are taken from patent US11260091B2, “Red seaweed extracts, formulations and anti-microbial uses thereof” (OCEANS LTD., priority 2017, dated 2022).

Holding throughout (assay): Liquid phase testing (bacterial growth, OD600)
The subject of one assay is P. acnes. The class given is cell-based, Propionibacterium acnes. The note with it: 30 μg/ml positive control.
Assay [1] concerns resistant Staphylococcus aureus. Format: cell-based. The conditions noted are these: S. aureus, 30 μg/ml positive control. As for the experimental part: (§1) Stock solutions of extracts were prepared in dimethylsulfoxide (DMSO) at 10 mg/ml and stored in 200 μl aliquots at −20° C. until used. Two pathological agents were assessed: resistant Staphylococcus aureus and resistant Staphylococcus pseudointermedius. Three concentrations of each extract (5, 10 and 25 μg/ml) were evaluated in triplicate for each trial. Vehicle alone served as negative control. […] For selected samples, studies were repeated at 100 and 50 μg/ml.
(§2) A standard micro or mini-prep chase study was conducted. Briefly, liquid media was inoculated with a starting bolus of 0.01% bacteria and spiked with test extract at the study concentrations. Samples were incubated (shaking, 37° C.) overnight for 16 hours and bacterial growth enumerated by UV spectrometry in quadruplicate.

Assay [2] concerns resistant Staphylococcus pseudointermedius. The class given is cell-based, Staphylococcus pseudintermedius. The conditions noted are these: S. pseudo, 30 μg/ml positive control. As for the experimental part: as §1, §2
The mark [3] stands for this setting: higher concentration study (Table 4).

SMILES strings stand for the structures.

`O=C(N[C@H](CO)[C@H](O)c1ccc([N+](=O)[O-])cc1)C(Cl)Cl` [CAP, Chloramphenicol]: the “OD600” value stood at 0.005 in the assay with P. acnes (Table 2); 0.000 with P. acnes (setting [3]); 0.023 in assay [1] (Table 2); 0.002 in assay [1] (setting [3]); 0.021 in assay [2] (Table 2); 0.004 in assay [2] (setting [3]).
